Read-outs that look alike come from different tables or passages of the source.
Experiments:
[1] = system: feline calicivirus F4 strain; experiment: In vitro test in test tube, feline caliciviruses (Example 11); type: cell-based
[2] = system: influenza virus Type A Aichi strain A/Aichi/68 (H3N2); type: cell-based; conditions: 10 ppm; for ratio of the amount of residual infectious viruses: 30 minutes at 25° C., PBS = 1.00
[3] = system: Herpes simplex virus type I VR-539; experiment: Inactivation of herpesviruses, plaque assay on Vero cells; type: cell-based
[4] = system: Vero cells; experiment: Impairment in colony formation capability; type: cell-based, African green monkey; conditions: phosphoric acid buffer (FIG. 7)
[5] = system: feline calicivirus F4 strain; experiment: Inactivation of feline caliciviruses (Example 10), plaque assay on CRFK cells; type: cell-based; conditions: 30 minutes at 25° C. (FIG. 10)

For `OCl` [Sodium hypochlorite aqueous solution, sodium hypochlorite], which “number of infectious viruses” value ([1]; pH 8.5, 100 ppm, contact 0 min) is on record?
Its value is 4.7 ± 2.8 log CPU/mL.

What about the “number of infectious viruses” value ([1]; pH 8.5, 100 ppm, contact 1 min) of the same molecule?
Its value is 3.7 ± 2.6 log CPU/mL.

What about the “number of infectious viruses” value ([1]; pH 8.5, 100 ppm, contact 5 min) of the same molecule?
The value was less than 2.0 log CPU/mL.

What about the “number of infectious viruses” value ([1]; pH 8.5, 100 ppm, contact 10 min) of the same molecule?
Its value is less than 2.0 log CPU/mL.

What about the “number of infectious viruses” value ([1]; pH 8.5, 200 ppm, contact 0 min) of the same molecule?
The value was 4.7 ± 2.8 log CPU/mL.

And the “number of infectious viruses” value ([1]; pH 8.5, 200 ppm, contact 1 min)?
The value was 2.5 ± 2.3 log CPU/mL.

And the “number of infectious viruses” value ([1]; pH 8.5, 200 ppm, contact 5 min)?
Its value is less than 2.0 log CPU/mL.

And the “number of infectious viruses” value ([1]; pH 8.5, 200 ppm, contact 10 min)?
The value was less than 2.0 log CPU/mL.

What about the “number of infectious viruses” value ([1]; pH 8.5, 400 ppm, contact 0 min) of the same molecule?
The value was 4.7 ± 2.8 log CPU/mL.

And the “number of infectious viruses” value ([1]; pH 8.5, 400 ppm, contact 1 min)?
Its value is less than 2.0 log CPU/mL.

And the “number of infectious viruses” value ([1]; pH 8.5, 400 ppm, contact 5 min)?
The value was less than 2.0 log CPU/mL.

And the “number of infectious viruses” value ([1]; pH 8.5, 400 ppm, contact 10 min)?
The value was less than 2.0 log CPU/mL.

And the “number of infectious viruses” value ([1]; pH unadjusted, 25 ppm, contact 0 min)?
Its value is 6.4 ± 2.7 log CPU/mL.

And the “number of infectious viruses” value ([1]; pH unadjusted, 25 ppm, contact 10 min)?
Its value is >10^6 log CPU/mL.

And the “number of infectious viruses” value ([1]; pH unadjusted, 50 ppm, contact 0 min)?
Its value is 6.4 ± 2.7 log CPU/mL.

And the “number of infectious viruses” value ([1]; pH unadjusted, 50 ppm, contact 1 min)?
The value was 3.5 ± 2.1 log CPU/mL.

What about the “number of infectious viruses” value ([1]; pH unadjusted, 50 ppm, contact 5 min) of the same molecule?
The value was 2.9 ± 2.7 log CPU/mL.

What about the “number of infectious viruses” value ([1]; pH unadjusted, 50 ppm, contact 10 min) of the same molecule?
The value was less than 2.0 log CPU/mL.

And the “number of infectious viruses” value ([1]; pH unadjusted, 100 ppm, contact 0 min)?
Its value is 6.4 ± 2.7 log CPU/mL.

And the “number of infectious viruses” value ([1]; pH unadjusted, 100 ppm, contact 1 min)?
Its value is less than 2.0 log CPU/mL.

And the “number of infectious viruses” value ([1]; pH unadjusted, 100 ppm, contact 5 min)?
The value was less than 2.0 log CPU/mL.

What about the “number of infectious viruses” value ([1]; pH unadjusted, 100 ppm, contact 10 min) of the same molecule?
The value was less than 2.0 log CPU/mL.

What about the “number of infectious viruses” value ([1]; pH unadjusted, 200 ppm, contact 0 min) of the same molecule?
Its value is 6.4 ± 2.7 log CPU/mL.

And the “number of infectious viruses” value ([1]; pH unadjusted, 200 ppm, contact 1 min)?
Its value is less than 2.0 log CPU/mL.

What about the “number of infectious viruses” value ([1]; pH unadjusted, 200 ppm, contact 5 min) of the same molecule?
Its value is less than 2.0 log CPU/mL.

What about the “number of infectious viruses” value ([1]; pH unadjusted, 200 ppm, contact 10 min) of the same molecule?
Its value is less than 2.0 log CPU/mL.

What about the “number of infectious viruses” value ([1]; pH unadjusted, 400 ppm, contact 0 min) of the same molecule?
The value was 6.4 ± 2.7 log CPU/mL.

What about the “number of infectious viruses” value ([1]; pH unadjusted, 400 ppm, contact 1 min) of the same molecule?
Its value is less than 2.0 log CPU/mL.

And the “number of infectious viruses” value ([1]; pH unadjusted, 400 ppm, contact 5 min)?
The value was less than 2.0 log CPU/mL.

What about the “number of infectious viruses” value ([1]; pH unadjusted, 400 ppm, contact 10 min) of the same molecule?
The value was less than 2.0 log CPU/mL.

And the “viruses inactivated to (detectable limit)” value ([2]; each pH from pH 5.5 to pH 8.8)?
Its value is < 10^−5.

What about the “ratio of the amount of residual infectious viruses” value ([2]; pH 5.5) of the same molecule?
Its value is less than 0.0002.

What about the “ratio of the amount of residual infectious viruses” value ([2]; pH 6.5) of the same molecule?
The value was less than 0.0002.

What about the “ratio of the amount of residual infectious viruses” value ([2]; pH 7.5) of the same molecule?
Its value is less than 0.0002.

What about the “ratio of the amount of residual infectious viruses” value ([2]; pH 8.5) of the same molecule?
The value was less than 0.0002.

And the “sterilizing effect on herpesvirus type I” value ([3]; acidic conditions of pH 5.5 or lower)?
The value was “diminished”.

What about the “Number of Residual Viruses in Test Solution/Number of Residual Viruses only with Buffer × 100 (%)” value ([3]; pH 4.5, 10 ppm) of the same molecule?
The value was 80%.

And the “Number of Residual Viruses in Test Solution/Number of Residual Viruses only with Buffer × 100 (%)” value ([3]; pH 4.5, 50 ppm)?
Its value is 67.4%.

What about the “Number of Residual Viruses in Test Solution/Number of Residual Viruses only with Buffer × 100 (%)” value ([3]; pH 4.5, 100 ppm) of the same molecule?
The value was 63.1%.

What about the “Number of Residual Viruses in Test Solution/Number of Residual Viruses only with Buffer × 100 (%)” value ([3]; pH 4.5, 150 ppm) of the same molecule?
Its value is 23.3%.

And the “Number of Residual Viruses in Test Solution/Number of Residual Viruses only with Buffer × 100 (%)” value ([3]; pH 4.5, 200 ppm)?
Its value is 35.2%.

And the “Number of Residual Viruses in Test Solution/Number of Residual Viruses only with Buffer × 100 (%)” value ([3]; pH 5.5, 10 ppm)?
The value was 14.3%.

And the “Number of Residual Viruses in Test Solution/Number of Residual Viruses only with Buffer × 100 (%)” value ([3]; pH 5.5, 50 ppm)?
The value was 90.9%.

What about the “Number of Residual Viruses in Test Solution/Number of Residual Viruses only with Buffer × 100 (%)” value ([3]; pH 5.5, 100 ppm) of the same molecule?
The value was 96.4%.

What about the “Number of Residual Viruses in Test Solution/Number of Residual Viruses only with Buffer × 100 (%)” value ([3]; pH 5.5, 150 ppm) of the same molecule?
The value was less than 0.2%.

What about the “Number of Residual Viruses in Test Solution/Number of Residual Viruses only with Buffer × 100 (%)” value ([3]; pH 5.5, 150 ppm, listed as sodium hypochlorite aqueous solution) of the same molecule?
The value was “below the detectable limit”.

And the “Number of Residual Viruses in Test Solution/Number of Residual Viruses only with Buffer × 100 (%)” value ([3]; pH 5.5, 200 ppm)?
Its value is less than 0.5%.

And the “Number of Residual Viruses in Test Solution/Number of Residual Viruses only with Buffer × 100 (%)” value ([3]; pH 5.5, 200 ppm, listed as sodium hypochlorite aqueous solution)?
The value was “below the detectable limit”.

And the “Number of Residual Viruses in Test Solution/Number of Residual Viruses only with Buffer × 100 (%)” value ([3]; pH 6.5, 10 ppm)?
The value was less than 6%.

And the “Number of Residual Viruses in Test Solution/Number of Residual Viruses only with Buffer × 100 (%)” value ([3]; pH 6.5, 50 ppm)?
Its value is less than 0.3%.

And the “Number of Residual Viruses in Test Solution/Number of Residual Viruses only with Buffer × 100 (%)” value ([3]; pH 6.5, 100 ppm)?
The value was less than 0.3%.

What about the “Number of Residual Viruses in Test Solution/Number of Residual Viruses only with Buffer × 100 (%)” value ([3]; pH 6.5, 150 ppm) of the same molecule?
Its value is less than 0.2%.

What about the “Number of Residual Viruses in Test Solution/Number of Residual Viruses only with Buffer × 100 (%)” value ([3]; pH 6.5, 200 ppm) of the same molecule?
Its value is less than 0.6%.

And the “Number of Residual Viruses in Test Solution/Number of Residual Viruses only with Buffer × 100 (%)” value ([3]; pH 7.5, 10 ppm)?
Its value is 20%.

And the “Number of Residual Viruses in Test Solution/Number of Residual Viruses only with Buffer × 100 (%)” value ([3]; pH 7.5, 50 ppm)?
Its value is less than 0.3%.

And the “Number of Residual Viruses in Test Solution/Number of Residual Viruses only with Buffer × 100 (%)” value ([3]; pH 7.5, 100 ppm)?
The value was less than 0.3%.

And the “Number of Residual Viruses in Test Solution/Number of Residual Viruses only with Buffer × 100 (%)” value ([3]; pH 7.5, 150 ppm)?
Its value is less than 0.2%.

And the “Number of Residual Viruses in Test Solution/Number of Residual Viruses only with Buffer × 100 (%)” value ([3]; pH 7.5, 200 ppm)?
The value was less than 0.4%.

What about the “Number of Residual Viruses in Test Solution/Number of Residual Viruses only with Buffer × 100 (%)” value ([3]; pH 8.5, 10 ppm) of the same molecule?
Its value is 36%.

And the “Number of Residual Viruses in Test Solution/Number of Residual Viruses only with Buffer × 100 (%)” value ([3]; pH 8.5, 50 ppm)?
Its value is less than 0.3%.

What about the “Number of Residual Viruses in Test Solution/Number of Residual Viruses only with Buffer × 100 (%)” value ([3]; pH 8.5, 100 ppm) of the same molecule?
Its value is less than 0.3%.

What about the “Number of Residual Viruses in Test Solution/Number of Residual Viruses only with Buffer × 100 (%)” value ([3]; pH 8.5, 150 ppm) of the same molecule?
The value was less than 0.2%.

What about the “Number of Residual Viruses in Test Solution/Number of Residual Viruses only with Buffer × 100 (%)” value ([3]; pH 8.5, 200 ppm) of the same molecule?
The value was less than 0.4%.

What about the “concentration reducing HSV-I to below the detectable limit” value ([3]; pH conditions of 6.5-8.5) of the same molecule?
Its value is no less than 50 ppm.

And the “concentration at which impairment in colony formation was observed” value [4]?
Its value is no more than 5 ppm.

What about the “effect of pH on inactivation of feline caliciviruses” value ([5]; pH 4.5 and pH 7.5) of the same molecule?
Its value is “greatly affected by pH”.

What about the “feline caliciviruses inactivation capability” value ([5]; pH of 4.5) of the same molecule?
The value was “lost”.
